Source: patent US6355799B1, “Substituted benzene compounds, process for their preparation, and herbicidal and defoliant compositions containing them” (ISK Americas Incorporated, priority 1997, dated 2002)

Tests used:
Format in all cases: in vivo
[1] = tested on: redroot pigweed (Amaranthus retroflexus, AMARE); experiment: Pre-emerge test, greenhouse herbicide activity screening; settings: pre-emerge, phytotoxicity rating 0-100 at 14 days after application
Method in brief: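 Compounds in acetone were track-sprayed at 15-1000 g ai/ha (187 l/ha) on sandy loam pots: pre-emerge one day after seeding, post-emerge at 2-3 leaf stage with 0.25% v/v non-ionic surfactant. Phytotoxicity was rated 14 days later on a 0 (no damage) to 100 (complete death) scale.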

[2] = tested on: large crabgrass (Digitaria sanguinalis, DIGSA); experiment: Post-emerge test, greenhouse herbicide activity screening; settings: post-emerge, phytotoxicity rating 0-100 at 14 days after application
Method in brief: (§1)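 Plants grown in 10 cm pots of sandy loam mix received acetone-dissolved compounds through a moving flat-fan nozzle. Doses ranged from 15 to 1000 g ai/ha. Pre-emerge pots were seeded one day earlier, post-emerge pots 8–21 days earlier. Fourteen days on, each pot was graded 0–100 for damage.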

[3] = tested on: velvetleaf (Abutilon theophrasti, ABUTH); experiment: as above; settings: post-emerge, phytotoxicity rating 0-100 at 14 days after application
Method in brief: as §1

[4] = tested on: sicklepod (Cassia obtusifolia, CASOB); experiment: as above; settings: post-emerge, phytotoxicity rating 0-100 at 14 days after application
Method in brief: as §1

[5] = tested on: johnsongrass (Sorghum halepense, SORHA); experiment: as above; settings: post-emerge, phytotoxicity rating 0-100 at 14 days after application
Method in brief: as §1

[6] = tested on: ivyleaf morningglory (Ipomoea hederacea, IPOHE); experiment: as above; settings: post-emerge, phytotoxicity rating 0-100 at 14 days after application
Method in brief: as §1

[7] = tested on: barnyardgrass (Echinochloa crus-galli, ECHCG); experiment: as above; settings: post-emerge, phytotoxicity rating 0-100 at 14 days after application
Method in brief: as §1

[8] = tested on: green foxtail (Setaria viridis, SETVI); experiment: as above; settings: post-emerge, phytotoxicity rating 0-100 at 14 days after application
Method in brief: as §1

[9] = tested on: lambsquarters (Chenopodium album, CHEAL); experiment: as above; settings: post-emerge, phytotoxicity rating 0-100 at 14 days after application
Method in brief: as §1

[10] = tested on: redroot pigweed (Amaranthus retroflexus, AMARE); experiment: as above; settings: post-emerge, phytotoxicity rating 0-100 at 14 days after application
Method in brief: as §1

[11] = tested on: large crabgrass (Digitaria sanguinalis, DIGSA); experiment: Pre-emerge test, greenhouse herbicide activity screening; settings: pre-emerge, phytotoxicity rating 0-100 at 14 days after application
Method in brief: (§2)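 Rating: 0–100 visual injury, 14 DAA. Application: acetone, 187 l/ha, 15–1000 g ai/ha, flat-fan track sprayer with nozzle 40–45 cm above soil or canopy. Post-emerge runs used 0.25% v/v surfactant on 2–3 leaf plants.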

[12] = tested on: velvetleaf (Abutilon theophrasti, ABUTH); experiment: as above; settings: pre-emerge, phytotoxicity rating 0-100 at 14 days after application
Method in brief: as §2

[13] = tested on: sicklepod (Cassia obtusifolia, CASOB); experiment: as above; settings: pre-emerge, phytotoxicity rating 0-100 at 14 days after application
Method in brief: as §2

[14] = tested on: johnsongrass (Sorghum halepense, SORHA); experiment: as above; settings: pre-emerge, phytotoxicity rating 0-100 at 14 days after application
Method in brief: as §2

[15] = tested on: ivyleaf morningglory (Ipomoea hederacea, IPOHE); experiment: as above; settings: pre-emerge, phytotoxicity rating 0-100 at 14 days after application
Method in brief: as §2

[16] = tested on: barnyardgrass (Echinochloa crus-galli, ECHCG); experiment: as above; settings: pre-emerge, phytotoxicity rating 0-100 at 14 days after application
Method in brief: as §2

[17] = tested on: green foxtail (Setaria viridis, SETVI); experiment: as above; settings: pre-emerge, phytotoxicity rating 0-100 at 14 days after application
Method in brief: as §2

[18] = tested on: lambsquarters (Chenopodium album, CHEAL); experiment: as above; settings: pre-emerge, phytotoxicity rating 0-100 at 14 days after application
Method in brief: as §2

[19] = tested on: upland rice (Oryza sp., var. Tebonnet, RICE); experiment: Post-emerge test, crop safety; settings: post-emerge, crop damage rating 0-100 at 14 days after application
Method in brief: as §1

[20] = tested on: field corn (Zea mays L., var. Dekalb 535, CORN); experiment: Post-emerge test, crop safety; settings: post-emerge, crop damage rating 0-100 at 14 days after application
Method in brief: as §1

[21] = tested on: upland rice (Oryza sp., var. Tebonnet, RICE); experiment: Pre-emerge test, crop safety; settings: crop damage, pre-emerge, phytotoxicity rating 0-100 at 14 days after application
Method in brief: (§3)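 Applied at 15–1000 g ai/ha from acetone in 187 l/ha spray volume. Post-emergence applications included 0.25% v/v non-ionic surfactant and reached plants sown 8–21 days before. Pre-emergence applications were incorporated by surface watering. Efficacy or crop damage was rated on a 0–100 scale after 14 days.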

[22] = tested on: field corn (Zea mays L., var. Dekalb 535, CORN); experiment: Pre-emerge test, crop safety; settings: crop damage, pre-emerge, phytotoxicity rating 0-100 at 14 days after application
Method in brief: as §3

With Nc1c(OC2CCCC2)c(Cl)cc(F)c1N1C(=O)C2=C(CCCC2)C1=O [Compound 8-5, N-(2-amino-4-chloro-3-cyclopentyloxy-6-fluorophenyl)tetrahydrophthalimide] the “Pre-emerge Herbicidal Activity AMARE” value ([1]; rate 63 g ai/ha) was 40, the “Pre-emerge Herbicidal Activity AMARE” value ([1]; rate 250 g ai/ha) was 95 and the “Post-emerge Herbicidal Activity DIGSA” value ([2]; 63 g ai/ha) was 0. The “Post-emerge Herbicidal Activity DIGSA” value ([2]; 250 g ai/ha) was 0, the “Post-emerge Herbicidal Activity ABUTH” value ([3]; 63 g ai/ha) was 70 and the “Post-emerge Herbicidal Activity ABUTH” value ([3]; 250 g ai/ha) was 90. For the same compound, the “Post-emerge Herbicidal Activity CASOB” value ([4]; 63 g ai/ha) was 0, the “Post-emerge Herbicidal Activity CASOB” value ([4]; 250 g ai/ha) was 10 and the “Post-emerge Herbicidal Activity SORHA” value ([5]; 63 g ai/ha) was 0. For the same compound, the “Post-emerge Herbicidal Activity SORHA” value ([5]; 250 g ai/ha) was 0, the “Post-emerge Herbicidal Activity IPOHE” value ([6]; 63 g ai/ha) was 0 and the “Post-emerge Herbicidal Activity IPOHE” value ([6]; 250 g ai/ha) was 40. The “Post-emerge Herbicidal Activity ECHCG” value ([7]; 63 g ai/ha) was 0, the “Post-emerge Herbicidal Activity ECHCG” value ([7]; 250 g ai/ha) was 0 and the “Post-emerge Herbicidal Activity SETVI” value ([8]; 63 g ai/ha) was 0. The “Post-emerge Herbicidal Activity SETVI” value ([8]; 250 g ai/ha) was 20, the “Post-emerge Herbicidal Activity CHEAL” value ([9]; 63 g ai/ha) was 70 and the “Post-emerge Herbicidal Activity CHEAL” value ([9]; 250 g ai/ha) was 70. For the same compound, the “Post-emerge Herbicidal Activity AMARE” value ([10]; 63 g ai/ha) was 40, the “Post-emerge Herbicidal Activity AMARE” value ([10]; 250 g ai/ha) was 100 and the “Pre-emerge Herbicidal Activity DIGSA” value ([11]; rate 63 g ai/ha) was 0. For the same compound, the “Pre-emerge Herbicidal Activity DIGSA” value ([11]; rate 250 g ai/ha) was 0, the “Pre-emerge Herbicidal Activity ABUTH” value ([12]; rate 63 g ai/ha) was 0 and the “Pre-emerge Herbicidal Activity ABUTH” value ([12]; rate 250 g ai/ha) was 70. For the same compound, the “Pre-emerge Herbicidal Activity CASOB” value ([13]; rate 63 g ai/ha) was 0, the “Pre-emerge Herbicidal Activity CASOB” value ([13]; rate 250 g ai/ha) was 40 and the “Pre-emerge Herbicidal Activity SORHA” value ([14]; rate 63 g ai/ha) was 0. The “Pre-emerge Herbicidal Activity SORHA” value ([14]; rate 250 g ai/ha) was 20, the “Pre-emerge Herbicidal Activity IPOHE” value ([15]; rate 63 g ai/ha) was 0 and the “Pre-emerge Herbicidal Activity IPOHE” value ([15]; rate 250 g ai/ha) was 0. For the same compound, the “Pre-emerge Herbicidal Activity ECHCG” value ([16]; rate 63 g ai/ha) was 0, the “Pre-emerge Herbicidal Activity ECHCG” value ([16]; rate 250 g ai/ha) was 0 and the “Pre-emerge Herbicidal Activity SETVI” value ([17]; rate 63 g ai/ha) was 70. The “Pre-emerge Herbicidal Activity SETVI” value ([17]; rate 250 g ai/ha) was 90, the “Pre-emerge Herbicidal Activity CHEAL” value ([18]; rate 63 g ai/ha) was 0 and the “Pre-emerge Herbicidal Activity CHEAL” value ([18]; rate 250 g ai/ha) was 80. The “Post-emerge Herbicidal Activity RICE” value ([19]; 63 g ai/ha) was 40, the “Post-emerge Herbicidal Activity RICE” value ([19]; 250 g ai/ha) was 50 and the “Post-emerge Herbicidal Activity CORN” value ([20]; 63 g ai/ha) was 0. The “Post-emerge Herbicidal Activity CORN” value ([20]; 250 g ai/ha) was 0, the “Pre-emerge Herbicidal Activity RICE” value ([21]; rate 63 g ai/ha) was 0 and the “Pre-emerge Herbicidal Activity RICE” value ([21]; rate 250 g ai/ha) was 0. The “Pre-emerge Herbicidal Activity CORN” value ([22]; rate 63 g ai/ha) was 0 and the “Pre-emerge Herbicidal Activity CORN” value ([22]; rate 250 g ai/ha) was 0.
